Measurements taken from article PMC6048268, “Resveratrol Inhibits Key Steps of Steroid Metabolism in a Human Estrogen-Receptor Positive Breast Cancer Model: Impact on Cellular Proliferation” (Frontiers in Pharmacology, 2018).

What was measured:
MDA-MB-231 cells = test: Metabolism of RES in MDA-MB-231 cells (HPLC); details: for maximum metabolite formation rate: 25 μM RES; for maximum metabolite formation rate / formation of RES metabolite: 48 h; for formation of RES metabolite: RES 0–100 μM
Method: (§1) After 48 h, the cellular media (100 μl) were mixed with 200 μl ice-cold (-20°C) methanol and subsequently centrifuged (14000 rpm, 5 min). The clear supernatants were then diluted 1:1 with aqueous ammonium acetate buffer (5 mM, pH = 7.4), and 80 μl of the samples were injected onto the HPLC column. […] Calibration of the chromatogram was accomplished using the external standard method.
(§2) The modes of inhibition were subsequently determined from Lineweaver–Burk plots, and the corresponding Ki values were calculated from Dixon plots using GraphPad Prism 6.0.

MCF-7 cells = test: Metabolism of RES in MCF-7 cells (HPLC)
Method: as §1, §2

[1] = 0.5–5.0 g/day RES for up to 29 days, healthy subjects; ref Brown et al., 2010; cited from earlier work
[2] = MDA-MB-231, Michaelis–Menten model
[3] = MDA-MB-231, substrate inhibition model

O=C(O)[C@H]1O[C@@H](Oc2cc(O)cc(/C=C/c3ccc(O)cc3)c2)[C@H](O)[C@@H](O)[C@@H]1O (relative stereo) [RES-3G, trans-resveratrol-3-O-(β-D-glucuronide)]
maximum metabolite formation rate (MDA-MB-231 cells): 23.9 ± 2.4 pmol/10^6 cells/h
Vmax (MDA-MB-231 cells; [2]): 32.8 ± 8.6 pmol/10^6 cells/h
Vmax (MDA-MB-231 cells; [3]): 43.4 ± 2.2 pmol/10^6 cells/h
Slope (n) (MCF-7 cells; MCF-7, Hill model): 1.86 ± 0.18
Vmax (MCF-7 cells; MCF-7, Hill model): 422.9 ± 38.9 pmol/10^6 cells/h

O=S(=O)(O)Oc1ccc(/C=C/c2cc(O)cc(OS(=O)(=O)O)c2)cc1 [RES-DS, trans-resveratrol-3-O-4′-O-disulfate]
formation of RES metabolite (MDA-MB-231 cells): below the detection limit

O=S(=O)(O)Oc1cc(O)cc(/C=C/c2ccc(O)cc2)c1 [RES-3S, trans-resveratrol-3-O-sulfate]
maximum metabolite formation rate (MDA-MB-231 cells): 2.28 ± 0.33 pmol/10^6 cells/h
Vmax (MDA-MB-231 cells; [2]): 3.25 ± 0.44 pmol/10^6 cells/h
Vmax (MDA-MB-231 cells; [3]): 4.31 ± 0.97 pmol/10^6 cells/h
fold increase of metabolite formation in MCF-7 compared with MDA-MB-231 (MCF-7 cells): 150 fold
mean maximum formation rate (MCF-7 cells; MCF-7, 48 h): 340.1 ± 49.4 pmol/10^6 cells/h
Vmax (MCF-7 cells; MCF-7, Michaelis–Menten model): 468.4 ± 9.9 pmol/10^6 cells/h
Vmax (MCF-7 cells; MCF-7, substrate inhibition model): 501.4 ± 17.1 pmol/10^6 cells/h
reduction in metabolite formation (MCF-7 cells; RES up to 100 μM, substrate inhibition): 43.2%
levels of metabolite relative to RES [1]: approximately 10 fold

O=C(O)C1OC(Oc2ccc(C=Cc3cc(O)cc(O)c3)cc2)C(O)C(O)C1O [RES-4G, trans-resveratrol-4′-O-(β-D-glucuronide)]
formation of RES metabolite (MDA-MB-231 cells): below the detection limit
formation of RES metabolite (MCF-7 cells; RES 0–100 μM, 48 h): below the detection limit
